Earlier results as cited in EP2338500A1, “Process for producing concentrated and refined actives from tissues and byproducts of Olea europaea with membrane technologies” (Phenofarm S.r.l., priority 2009, dated 2011).

Tested on: murine leukemic cells P-388
Conditions: P-388 cells

Row | Structure (SMILES) | cytotoxic activity at a concentration ED50 [µg/mL]
1 | C[C@@H]1O[C@@H](O[C@@H]2[C@@H](O)[C@H](OCCc3ccc(O)c(O)c3)O[C@H](COC(=O)/C=C/c3ccc(O)c(O)c3)[C@H]2O)[C@H](O)[C@H](O)[C@H]1O [isoverbascoside] | 10
2 | C[C@@H]1O[C@@H](O[C@@H]2[C@@H](O)[C@H](OCCc3ccc(O)c(O)c3)O[C@H](CO)[C@H]2OC(=O)/C=C/c2ccc(O)c(O)c2)[C@H](O)[C@H](O)[C@H]1O [verbascoside] | 26
